Test results: patent US20240415753A1, “DEODORANT COMPOSITIONS COMPRISING CARBOXYLIC ACIDS” (The Procter & Gamble Company, priority 2023, published 2024)

How the values were obtained:
[1] = Surface tension of carboxylic acid at 2 wt % in water (Wilhelmy plate); type: physicochemical; conditions: 2 wt % solution of the carboxylic acid in water; average of 3 samples
Procedure: Surface tension was measured using surface tension measurement, described herein. […] Surface tension of a sample is calculated as the average of the last 5 measured values. […] The average of the last 5 values is used to calculate surface tension of a sample. Surface Tension is measured by ASTM […]-20 Method C-Surface Tension by […] plate. For accurate measurement, the Surface Tension measurement should be allowed to equilibrate over the course of at least 1 minute, or at least 2 minutes, or longer depending on the sample. Properly equilibrated surface tension measurement is evaluated by not seeing a change in the surface tension measurement across multiple data points at the end of the measurement time period. The sample is run for a longer period of time if the surface tension measurement is continuing to change across multiple data points at the end of the measurement time period. […] The average of the last 5 values collected is used to calculate surface tension of a sample.

[2] = test system: mock community of five underarm species (3 Staphylococcus and 2 Corynebacterium); assay: MIC of various carboxylic acids (Optical Density MIC 95); type: cell-based; conditions: pH 5, Tryptic Soy Broth, initial concentration 1000 ppm, ~24 hours at 37° C., OD 600 nm
Excerpt: The following MIC (Minimum Inhibitory Concentration) was done on various carboxylic acids. The MIC is the lowest concentration of active compound at which no growth of the microorganism is observed macroscopically. […] Tryptic Soy Broth is used in the measurements below as a standard diluent for testing MIC. Initial concentration is the highest concentration tested in this experiment. […] The results shown in Table 7 below indicate that carboxylic acids have the ability to inhibit bacteria growth. […] The MIC or minimum inhibitory concentration test determines antimicrobial activity of a material against a specific bacteria. The most commonly employed methods are the tube dilution method and agar dilution method. Test products that are not clear or precipitate the growth media are tested by agar dilution method which is similar to the tube dilution method except dilutions are plated on agar. The tube dilution test is the standard method for determining levels of microbial resistance to an antimicrobial agent. Serial dilutions of the test agent are made in a liquid microbial growth medium which is inoculated with a standardized number of organisms and incubated for a prescribed time. The lowest concentration (highest dilution) of test agent preventing appearance of turbidity (growth) is considered to be the minimal/minimum inhibitory concentration (MIC). At this dilution the test agent is bacteriostatic. […] This measurement is referred to as optical density.

[3] = Surface tension of solvents at 50 wt % in water (Wilhelmy plate); type: physicochemical; conditions: solvent at 50 wt % in water; average of 3 samples
Excerpt: In addition, carboxylic acids may be used in deodorant compositions that are desired to be clear. For the composition to appear clear, the refractive index of the polar and nonpolar phases may not vary too much. For example, for a clear appearance of a polar in nonpolar emulsion, a significant amount of material with high refractive index, water soluble solvents or emollients (for example glycols, polyethers, diols, glycerin, or mixtures thereof), can be added to the polar phase to match the refractive index of water (1.333) to silicone (1.40). […] Surface tension is measured for mixtures of solvents at 50 wt % in water. Surface tension was measured using the surface tension measurement, as described in the Test Method section herein. Measurement time period was 1 minute with 30 values measured over the measurement time period. Surface tension of a sample is calculated as the average of the last 5 measured values. Each reported value is an average of 3 samples measured.
Surface Tension is measured by ASTM D1331-20 Method C-Surface Tension by Willhelmy plate. […] Properly equilibrated surface tension measurement is evaluated by not seeing a change in the surface tension measurement across multiple data points at the end of the measurement time period. […] A minimum of 30 measured values are collected during the measurement time period. […]

SMILES | Surface Tension when measured at 2 wt % in Water [1] [mN/m] | MIC [2] [µg/mL] | Surface Tension when measured at 50 wt % in Water [3] [mN/m]
O=C1O[C@H]([C@@H](O)CO)C(O)=C1O [Ascorbic Acid] | 72.4 |  | 
O=C(O)CC(O)(CC(=O)O)C(=O)O [Citric Acid] | 71.3 |  | 
O=C(O)/C=C/C(=O)O [Fumaric Acid] |  | 250 | 
OCC(O)CO [Glycerin] |  |  | 68.6
O=C(O)CO [Glycolic Acid] | 71.1 |  | 
CC(O)C(=O)O (centres unmarked) [Lactic Acid] | 63.7 | 1000 | 
O=C(O)/C=C\C(=O)O [Maleic Acid] |  | 1000 | 
O=C(O)CC(O)C(=O)O (centres unmarked) [Malic Acid] | 71.8 | 500 | 
O=C(O)C(O)c1ccccc1 (centres unmarked) [Mandelic Acid] | 63.7 | 1000 | 
CC(O)CO (centres unmarked) [Propylene Glycol (PG), Propylene Glycol] |  |  | 44.6
O=C(O)c1ccccc1O [Salicylic Acid] |  | 125 | 
O=C(O)CCC(=O)O [Succinic Acid] | 69.8 | 1000 | 
O=C(O)C(O)C(O)C(=O)O (centres unmarked) [Tartaric Acid] |  | 250 | 
